From ChEMBL document CHEMBL1201862, “PubChem BioAssay data set” (2004)
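Growth conditions: 96-well plates. Treatment: test compound, 48 hours, 5 concentrations. Analysis: linear interpolation between bracketing concentrations; unreached endpoints set to highest concentration. Abbreviation: GI50, concentration required for 50% inhibition of growth.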 Active and inactive are the calls of the source. Cut-off read from the data, not from the text of the source: active = GI50 up to about 1.1 µM and inactive = higher.

How the values were obtained:
Experiment in all cases: growth of human tumour cells (NCI), 48 h
BT-549 = test system: BT-549
NCI-H460 = test system: NCI-H460
NCI-H23 = test system: NCI-H23
SK-MEL-28 = test system: SK-MEL-28
Malme-3M = test system: Malme-3M
NCI-H522 = test system: NCI-H522
OVCAR-5 = test system: OVCAR-5
HCC 2998 = test system: HCC 2998
DU-145 = test system: DU-145
KM12 = test system: KM12
HCT-15 = test system: HCT-15
U-251 = test system: U-251
IGROV-1 = test system: IGROV-1
Hs-578T = test system: Hs-578T
EKVX = test system: EKVX
A498 = test system: A498
HOP-92 = test system: HOP-92
SN12C = test system: SN12C
M14 = test system: M14
UO-31 = test system: UO-31

SMILES	GI50 (BT-549)	GI50 (NCI-H460)	GI50 (NCI-H23)	GI50 (SK-MEL-28)	GI50 (Malme-3M)	GI50 (NCI-H522)	GI50 (OVCAR-5)	GI50 (HCC 2998)	GI50 (DU-145)	GI50 (KM12)	GI50 (HCT-15)	GI50 (U-251)	GI50 (IGROV-1)	GI50 (Hs-578T)	GI50 (EKVX)	GI50 (A498)	GI50 (HOP-92)	GI50 (SN12C)	GI50 (M14)	GI50 (UO-31)
Cc1[nH]c2ccccc2c1/C=N/NC(=O)c1cccc(I)c1	21.9 µM (inactive)	17.1 µM (inactive)	19.1 µM (inactive)	22.7 µM (inactive)	24.2 µM (inactive)	24.3 µM (inactive)	25.1 µM (inactive)	18.6 µM (inactive)	27.9 µM (inactive)	16.3 µM (inactive)	23.7 µM	21.5 µM (inactive)	17.7 µM (inactive)	33.1 µM (inactive)	12.2 µM (inactive)	18.4 µM (inactive)	14.4 µM (inactive)	30.2 µM (inactive)	15 µM (inactive)	20.7 µM (inactive)
Nc1ccc2c(c1)C(=O)c1ccccc1-2	34 µM (inactive)	> 100 µM (inactive)	> 100 µM (inactive)	> 100 µM (inactive)	> 100 µM (inactive)	> 100 µM (inactive)	> 100 µM (inactive)	93.3 µM (inactive)	> 100 µM (inactive)	62.5 µM (inactive)	95.5 µM	> 100 µM (inactive)	> 100 µM (inactive)	> 100 µM (inactive)	89.7 µM (inactive)	49 µM (inactive)	28.6 µM (inactive)	> 100 µM (inactive)	57.4 µM (inactive)	68.2 µM (inactive)
O=C1/C(=C/c2ccccc2)CN(C(=O)CCN2CCCC2)C/C1=C\c1ccccc1	1.56 µM (inactive)	1.77 µM (inactive)	1.8 µM (inactive)	1.62 µM (inactive)	3.03 µM (inactive)	1.31 µM (inactive)	3.16 µM (inactive)	1.77 µM (inactive)	4.48 µM (inactive)	0.607 µM (active)	1.73 µM	0.794 µM (active)	2.67 µM (inactive)	0.282 µM (active)	2.49 µM (inactive)	4.17 µM (inactive)	4.44 µM (inactive)	1.51 µM (inactive)	1.74 µM (inactive)	2.77 µM (inactive)
CCC(=S)N(C)O	> 100 µM (inactive)	10.1 µM (inactive)	10.1 µM (inactive)	57.4 µM (inactive)	53.5 µM (inactive)	0.41 µM (active)	45.1 µM (inactive)	55.6 µM (inactive)	27.6 µM (inactive)	25 µM (inactive)	17 µM	23.4 µM (inactive)	6.93 µM (inactive)	> 100 µM (inactive)	16.5 µM (inactive)	65.9 µM (inactive)	> 85.9 µM (inactive)	22 µM (inactive)	17.8 µM (inactive)	26.8 µM (inactive)
C=CC(=O)NCCC(=O)OCn1cc(F)c(=O)[nH]c1=O	> 100 µM (inactive)	0.434 µM (active)	7.01 µM (inactive)	32.2 µM (inactive)	4.59 µM (inactive)	9.4 µM (inactive)	20.6 µM (inactive)	0.369 µM (active)	3.64 µM (inactive)	5.48 µM (inactive)	6.14 µM	18 µM (inactive)	4.33 µM (inactive)	> 100 µM (inactive)	10.4 µM (inactive)	0.456 µM (active)	8.49 µM (inactive)	0.838 µM (active)	9.89 µM (inactive)	2.33 µM (inactive)
COc1ccc(NS(=O)(=O)c2ccc(NC(NC(=O)CC(C)C)(C(F)(F)F)C(F)(F)F)cc2)nn1	> 100 µM (inactive)	> 100 µM (inactive)	> 100 µM (inactive)	> 100 µM (inactive)	> 100 µM (inactive)	> 100 µM (inactive)	> 100 µM (inactive)	> 100 µM (inactive)	> 100 µM (inactive)	> 100 µM (inactive)	> 100 µM	> 100 µM (inactive)	> 100 µM (inactive)	> 100 µM (inactive)	> 100 µM (inactive)	> 100 µM (inactive)	> 100 µM (inactive)	> 100 µM (inactive)	> 100 µM (inactive)	> 100 µM (inactive)
